Values of other authors in publication PMC3693451 (Bioorganic & medicinal chemistry letters, 2011).

Tests used:
[1] = target: CB receptors; settings: read-out: Ki at both CB receptors
[2] = test system: CB receptors
[3] = test system: rat CB1, human CB1 and human CB2 receptors
[4] = test system: chronic neuropathic and inflammatory pain; settings: rat
[5] = target: human CB1; settings: read-out: human CB1 Ki
[6] = 214 targets

Compound | Ki [1] [µM] | agonist type at both CB receptors [2] | neuroprotective properties | agonist properties in [35S]GTPγS binding assays [3] | effect in chronic neuropathic and inflammatory pain models [4] | Ki [5] [µM] | selectivity for CB receptors in target screen [6]
O=S(=O)(CCCC(F)(F)F)Oc1cccc(Oc2cccc3c2C[C@H](CO)C3)c1 [BAY 38–7271, (−)-(R)-3-(2-hydroxymethylindanyl-4-oxy)phenyl-4,4,4-trifluoro-1-sulfonate] | 0.00046 to 0.00185 | full agonist | pronounced neuroprotective properties | – | – | – | –
N#Cc1c(Oc2cccc(OS(=O)(=O)CCCC(F)(F)F)c2)cccc1C(F)(F)F [BAY 59–3074] | – | – | – | partial agonist | pronounced antihyperalgesic and antiallodynic properties | 0.0483 | no significant interactions with other targets
